System: endogenous BMP-2
Experiment: CRISPR activation of endogenous BMP-2, qPCR in transfected HEK-293T cells
Assay type: cell-based, human
Settings: qPCR 24 hours after transfection with constitutively-expressed dCas9-VPR, normalized to HPRT
Experimental: HEK-293T cells were transfected with constitutively-expressed dCas9-VPR (Addgene #63798) and gRNA-expressing plasmids (Addgene #41824, sequences targeting the 150 bp region of the transcription start site of the endogenous BMP-2 was cloned into the vector; gRNA2 seq: […], gRNA3 seq: […], GFP seq:). After 24 hours, BMP-2 induction was measured by qPCR, following manufacturer protocols. Groups of HEK-293T cells tested were: Untransfected (UT), dCas9-VPR (VPR), GFP, gRNA2, and gRNA3. All groups were normalized to Hypoxanthine-guanine phosphoribosyltransferase (HPRT) expression (FIG. 27). Untransfected, dCas9-VPR, gRNA2, and gRNA3 groups were compared to GFP to elucidate increase in expression levels (FIG. 28).

| Substance | induction of endogenous BMP-2 expression compared to GFP group [fold] |
| --- | --- |
| gRNA3: gRNA-expressing plasmid targeting the 150 bp region of the transcription start site of endogenous BMP-2; seq GCTCGCCGGGGATCCCCGAG (expressed from plasmid) | 77 |
| gRNA2: gRNA-expressing plasmid targeting the 150 bp region of the transcription start site of endogenous BMP-2; seq GGCGAGCCGCGCCGCGAAGG (expressed from plasmid) | 112 |

— US20210047653A1, “COMPOSITIONS AND METHODS FOR REGULATING A BIOLOGICAL PROCESS” (The University of Memphis Research Foundation, priority 2018, published 2021)
